# Source: patent publication US9381229B2, “Pharmaceutical composition for use in the treatment of dysfunction associated with aging” (INSERM (INSTITUT NATIONAL DE LA SANTE ET DE LA RECHERCHE …, priority 2011, dated 2016)
# Where two headings read alike, the source gives them in different places.
# Columns and labels:
# mtDNA = experiment: Mitochondrial DNA analysis in soleus muscle (COX1 to cyclophilin A); assay type: in vivo; conditions: HFD mice
# Experimental: Total DNA was extracted from soleus muscle using a commercial kit (DNeasy; QIAGEN). The content of mitochondrial (mt)DNA was calculated using real-time quantitative PCR by measuring the threshold cycle ratio of a mitochondrial encoded gene (COX1) and a nuclear-encoded gene (cyclophilin A) as previously described (15).
# [1] = tested on: nuclear respiratory factor 1 (NRF1); conditions: soleus muscle; HFD mice; chronic apelin treatment
# Experimental: (§1) Mice were handled in accordance with the principles and guidelines established by INSERM. C57B16/J wild-type (WT) mice were obtained from Harlah (Gannat, France). […] Moris J. Birnbaum (Howard Hughes Medical Institute, University of Pennsylvania, Philadelphia, Pa.). Apelin-deficient (apelin−/−) mice were generated as described previously (10) and backcrossed to C57B16/J mice >10 times. Mice were housed conventionally in a constant temperature (20-22° C.) and humidity (50-60%) animal room, with a 12/12 h light/dark cycle (lights on at 7:00 a.m.) and free access to food and water. The C57B16/J and AMPK-DN mice were fed an ND from weaning until aged 10 weeks and then either maintained on ND (control group) or fed an HFD containing 20% protein, 35% carbohydrate, and 45% fat (Research Diets, New Brunswick, N.J.). Apelin treatment began after the onset of insulin resistance in males aged 23 weeks. Mice were injected daily with apelin-13 (Phoenix Biotech) at […] i.p. as previously described (7) for 28 days. Age-matched control mice were PBS injected during the same period. Standard mice were also treated with a specific APJ receptor antagonist (F13A) (Phoenix Biotech) (11) at 0.2 μmol/kg/day during 28 days or with the combination of apelin and F13A. All mice were killed 24 h after the last apelin injection in a fed state.
# (§2) Total RNAs (1 μg) were isolated from muscle using RNA STAT (AMS Technology, Lutterworth, U.K.) and were reverse transcribed using random hexamers and Superscript II reverse transcriptase (Invitrogen, Paisley, U.K.). Real time PCR was performed as previously described (1). Analysis of the 18S ribosomal RNA was performed using the ribosomal RNA control TaqMan Assay Kit (Applied Biosystems) to normalize gene expression.
# PGC1-β = conditions: soleus muscle; HFD mice; chronic apelin treatment
# Experimental: as §1, §2
# [2] = tested on: mitochondrial transcription factor A (TFAM); conditions: soleus muscle; HFD mice; chronic apelin treatment
# Experimental: as §1, §2
# PGC1-α = conditions: soleus muscle; HFD mice; chronic apelin treatment
# Experimental: as §1, §2
# [3] = tested on: mitochondria of soleus muscle; conditions: HFD mice
# Experimental: as §1
# [4] = tested on: muscle of insulin-resistant mice; conditions: HFD mice; chronic apelin treatment 28 days
# Experimental: as §1
# Malonyl-CoA = conditions: soleus muscle of insulin-resistant mice
# Experimental: as §1
# citrate synthase = conditions: muscle homogenates; HFD mice; n=7-9; P<0.001 vs control
# Experimental: as §1
# soleus muscle = tested on: soleus muscle
# Experimental: as §1
# AMPK [5] = conditions: muscle of HFD AMPK-DN apelin-treated mice
# Experimental: as §1
# [6] = Plasma apelin concentration after ip bolus of apelin (Example 1); assay type: in vivo, mice; conditions: bolus of ip apelin 0.1 μmole/kg; 10 min after injection
# mitochondrial complexes = conditions: muscle of HFD mice; chronic apelin treatment
# Experimental: as §1
# (§3) Membranes were probed with β-actin or AMPK or ACC antibodies for total proteins.
# AMPK [7] = conditions: muscle of insulin-resistant mice
# Experimental: as §1, §3
# ACC = conditions: muscle of insulin-resistant mice
# Experimental: as §1, §3
# Myostatin = conditions: for Myostatin marker quantification (mRNA), Mean: apelin 0.1 μmole/kg/day ip, 28 days
# Experimental: (§4) Mice were handled in accordance with the principles and guidelines established by the National Institute of Medical Research (INSERM). C57B16/J wild type mice were obtained from Harlan (Gannat, France). CMV-KO apelin mice were obtained from Genoway (Lyon, France). Mice were housed conventionally in a constant temperature (20-22° C.) and humidity (50-60%) animal room, with a 12/12 h light/dark cycle (lights on at 8:00 am) and free access to food and water. The mice were fed a chow diet from weaning until 10-week-old and then either maintained on a chow diet (Research Diet, NJ).
# (§5) Apelin treatment was processing to mice from 31 weeks old to 35 weeks old. Mice were daily injected with intraperitoneal injection of apelin (0.1 μmole/kg/day) as previously described (Higuchi et al 2005; Yue et al 2010) for 28 days. Age-matched control mice were PBS-injected during the same period. All mice were sacrificed 24 h after the last apelin ip injection in a fed state.
# (§6) Total RNAs ([…]) were isolated from muscles using GeneJET RNA Purification Kit (Fermentas, USA). Total RNAs were reverse transcribed using random hexamers and Superscript 11 reverse transcriptase (Invitrogen, UK). Real time PCR was performed as previously described (Boucher et al. 2005).
# myogenin = conditions: for myogenin marker quantification (mRNA), Mean: apelin 0.1 μmole/kg/day ip, 28 days
# Experimental: as §4, §5, §6
# Myf5 = conditions: for Myf5 marker quantification (mRNA), Mean: apelin 0.1 μmole/kg/day ip, 28 days
# Experimental: as §4, §5, §6
# MyoD = conditions: for MyoD marker quantification (mRNA), Mean: apelin 0.1 μmole/kg/day ip, 28 days
# Experimental: as §4, §5, §6
# [8] = Plasma apelin concentration in HFD mice (Example 3); assay type: in vivo
# Experimental: Plasma fatty acids (FM) and TGs measured by colorimetric technique with the Wako NEFA kit (Wako Chemicals) and the PAP 150 Kit (bioMerieux), respectively, as well as plasma leptin, adiponectin (Quantikine; R&D Systems), and apelin (Phoenix Pharmaceuticals, Inc.), were determined in the fed state at the end of the treatment. Insulinemia (Mercodia, Uppsala, Sweden) and glycemia measured with a glucometer (Accu-check; Roche Diagnostics) were determined in the fasted state on blood from the tail vein.
# [9] = soleus muscle, HFD mice, chronic apelin treatment
# [10] = quadriceps muscles of moderate aged-mice, 28-days treatment
smiles,measurement,setting,value
"CSCC[C@H](NC(=O)[C@@H]1CCCN1C(=O)CNC(=O)[C@H](CCCCN)NC(=O)[C@H](Cc1cnc[nH]1)NC(=O)[C@H](CO)NC(=O)[C@H](CC(C)C)NC(=O)[C@H](CCCNC(=N)N)NC(=O)[C@@H]1CCCN1C(=O)[C@H](CCCNC(=N)N)NC(=O)[C@@H](N)CCC(N)=O)C(=O)N1CCC[C@H]1C(=O)N[C@@H](Cc1ccccc1)C(=O)O [apelin, apelin-13]",mtDNA-to-nuclear DNA ratio vs PBS-treated mice (FIG. 5D),mtDNA,significantly higher
same,expression of NRF1,[1],upregulated
same,expression of PGC1-β (FIG. 5C),PGC1-β,not modified
same,expression of TFAM,[2],upregulated
same,Expression of PGC1-α (FIG. 5C),PGC1-α,significantly increased
same,alterations of mitochondria ultrastructure in IMF and SS mitochondria (FIG. 5E),[3],Fewer adverse alterations
same,density of intramyofibrillar (IMF) mitochondria (FIG. 5E),[3],significantly increased
same,succinate and adenylate-driven respiration (State 3),[3]; permeabilized soleus fibers,significantly higher
same,succinate-driven mitochondrial respiration (complex II) vs control (FIG. 5A),[3]; permeabilized soleus fibers,significantly higher
same,"glutamate/malate-driven mitochondrial respiration (complex I), apelin- vs PBS-treated","[3]; permeabilized soleus fibers, data not shown",No difference
same,amount of IMTG and DAG in muscle vs PBS treatment (FIG. 4A),[4],does not reduce
same,malonyl-CoA concentrations (FIG. 6B),Malonyl-CoA,significant reduction
same,citrate synthase activity,citrate synthase,2.91±0.07 μmol/min/mg proteins
same,insulin-stimulated glucose uptake vs PBS-treated mice (FIG. 7B),"soleus muscle; 100 nmol/L insulin, HFD mice",significantly increased
same,rate of palmitate incorporation into TG (FIG. 4B),"soleus muscle; HFD mice, chronic apelin treatment 28 days",no effect
same,"acylcarnitine levels, especially C16:1 and C18:1 species, vs HFD PBS-treated mice (FIG. 7A)",soleus muscle; soleus muscle homogenates,reduced
same,complete oxidation of [14C]palmitate to CO2 vs PBS treatment (FIG. 4C),soleus muscle; [9],significantly increased
same,incomplete oxidation of [14C]palmitate (FIG. 4C),soleus muscle; [9],not significantly increased
same,apelin-increased FAO in HFD AMPK-DN mice vs HFD WT (FIG. 6C),AMPK [5],completely blunted
same,apelin-increased mitochondrial biogenesis in HFD AMPK-DN mice vs HFD WT (FIG. 6D),AMPK [5],completely blunted
same,"overexpression of PGC1-α, TFAM, and NRF1 in HFD AMPK-DN mice (FIG. 6E)",AMPK [5],reduced
same,"Plasma apelin concentrations, increase",[6],over 2.5 fold
same,"Protein expression of complex II, III, and V (FIG. 5B)",mitochondrial complexes,significantly increased
same,AMPK phosphorylation (FIG. 6A),AMPK [7],significantly increased
same,ACC phosphorylation (FIG. 6A),ACC,significantly increased
same,"Myostatin marker quantification (mRNA), Mean",Myostatin; EDL muscle,114.660
same,"Myostatin marker quantification (mRNA), Mean",Myostatin; Gas muscle,1034.000
same,"Myostatin marker quantification (mRNA), Mean",Myostatin; Quad muscle,244.300
same,"myostatin expression, change in words (FIGS. 1A and B)",Myostatin; [10],decrease
same,"myogenin marker quantification (mRNA), Mean",myogenin; EDL muscle,14.280
same,"myogenin marker quantification (mRNA), Mean",myogenin; Gas muscle,23.360
same,"myogenin marker quantification (mRNA), Mean",myogenin; Quad muscle,35.060
same,"Myogenin expression, change in words (FIGS. 1A and B)",myogenin; [10],increased
same,"Myf5 marker quantification (mRNA), Mean",Myf5; EDL muscle,1.200
same,"Myf5 marker quantification (mRNA), Mean",Myf5; Gas muscle,5.340
same,"Myf5 marker quantification (mRNA), Mean",Myf5; Quad muscle,5.820
same,"Myf 5 expression, change in words (FIGS. 1A and B)",Myf5; [10],increased
same,"MyoD marker quantification (mRNA), Mean",MyoD; EDL muscle,142.520
same,"MyoD marker quantification (mRNA), Mean",MyoD; Gas muscle,222.300
same,"MyoD marker quantification (mRNA), Mean",MyoD; Quad muscle,328.160
same,"MyoD expression, change in words (FIGS. 1A and B)",MyoD; [10],increased
same,"Plasma apelin concentrations, increase","[8]; HFD mice, bolus of apelin 0.1 μmol/kg i.p., 10 min after injection",> 2.4 fold
same,"Plasma apelin concentrations, apelin-treated vs PBS-treated mice",[8]; at the end of the 28-day treatment,not different
same,level at 10 min,"[8]; mouse, in vivo, ip, 0.1 umol/kg, HFD mice, bolus of apelin 0.1 μmol/kg i.p., 10 min after injection, n=5",4.12 ± 0.96 ng/mL
